Assay results as given in publication PMC7849011, “Defining the Antimalarial Activity of Cipargamin in Healthy Volunteers Experimentally Infected with Blood-Stage Plasmodium falciparum” (Antimicrobial Agents and Chemotherapy, 2021).
Read-outs that look alike come from different tables or passages of the source.

How the values were obtained:
P. falciparum = conditions: IBSM, cited from earlier work
P. falciparum 3D7 = test: Induced blood-stage malaria (IBSM) volunteer infection study: parasitemia by 18S rRNA qPCR; format: in vivo, Plasmodium falciparum
Description: A single cohort of eight subjects was inoculated intravenously with P. falciparum 3D7-infected human erythrocytes (approximately 1,800 viable parasites) as previously described ([24]). Parasite growth was monitored by collecting blood samples and performing quantitative PCR (qPCR) targeting the gene encoding P. falciparum 18S rRNA ([25]). […] The dose of cipargamin selected was predicted to be subtherapeutic based on preclinical modeling ([7]) and pharmacokinetic data obtained in previous clinical studies ([8]) and thus chosen to facilitate modeling to estimate the pharmacokinetic/pharmacodynamic relationship. To monitor total parasitemia, blood samples were collected for 18S rRNA qPCR before inoculation, on day 3, twice daily on days 4 to 6, pretreatment on day 7, and 4, 8, 12, 16, 24, 30, and 36 h posttreatment, twice daily from day 9 to day 11, and every 1 to 3 days until day 35. Blood samples for gametocytemia measurements were collected on day 11, every 1 to 3 days between day 15 and day 29, and on day 35. […] Analyses were performed in R version 3.3.0. The PRR and parasite clearance half-life were estimated using the slope of the optimal fit for the log-linear relationship of the parasitemia decay as described previously ([27]).

For `Cc1cc(Nc2ccc(S(F)(F)(F)(F)F)cc2)n2nc(C(C)(F)F)nc2n1` [DSM265], the parasite clearance half-life (P. falciparum; 150 mg single dose) is given as 9.4 h.
For `Clc1ccc2c(N3CCN(CCCN4CCN(c5ccnc6cc(Cl)ccc56)CC4)CC3)ccnc2c1` [piperaquine, reference compound], the “clearance of asexual parasite regrowth” value (P. falciparum 3D7; 960 mg single oral dose after regrowth post-cipargamin) is listed as “successful in clearing asexual parasite regrowth”, the “second parasite regrowth, number of subjects” value (P. falciparum 3D7; after 960 mg piperaquine, 8 subjects) is listed as 3 subjects and the parasite clearance half-life (P. falciparum; 640 mg single dose) is listed as 5.22 h.
For `OC(c1cc(C(F)(F)F)nc2c(C(F)(F)F)cccc12)C1CCCCN1` (centres unmarked) [mefloquine], the parasite clearance half-life (P. falciparum; 10 mg/kg single dose) is given as 6.2 h.
